Results reported in PMC6511942, “Exploitation of Antibiotic Resistance as a Novel Drug Target: Development of a β-Lactamase-Activated Antibacterial Prodrug” (Journal of Medicinal Chemistry, 2019).

Legend:
[1] = system: DH5α cells –βla; test: Whole-cell NMR β-lactamase hydrolysis assay, DH5α without β-lactamase; format: cell-based, E. coli; settings: DH5α – CTX-M-1, 100 μM, 60 min
[2] = system: DH5α expressing CTX-M-1; test: Whole-cell NMR β-lactamase hydrolysis assay, DH5α + CTX-M-1; format: cell-based, E. coli; settings: DH5α + CTX-M-1, 100 μM, 60 min
[3] = target: T1, recombinant DNA gyrase (Escherichia coli, UniProt P0AES4+P0AES6); test: Recombinant DNA gyrase supercoiling assay ± CTX-M-15; format: biochemical, E. coli; settings: ± CTX-M-15
T1 construct: purchased Inspiralis
T1 sequence (P0AES4 whole entry, one chain of several): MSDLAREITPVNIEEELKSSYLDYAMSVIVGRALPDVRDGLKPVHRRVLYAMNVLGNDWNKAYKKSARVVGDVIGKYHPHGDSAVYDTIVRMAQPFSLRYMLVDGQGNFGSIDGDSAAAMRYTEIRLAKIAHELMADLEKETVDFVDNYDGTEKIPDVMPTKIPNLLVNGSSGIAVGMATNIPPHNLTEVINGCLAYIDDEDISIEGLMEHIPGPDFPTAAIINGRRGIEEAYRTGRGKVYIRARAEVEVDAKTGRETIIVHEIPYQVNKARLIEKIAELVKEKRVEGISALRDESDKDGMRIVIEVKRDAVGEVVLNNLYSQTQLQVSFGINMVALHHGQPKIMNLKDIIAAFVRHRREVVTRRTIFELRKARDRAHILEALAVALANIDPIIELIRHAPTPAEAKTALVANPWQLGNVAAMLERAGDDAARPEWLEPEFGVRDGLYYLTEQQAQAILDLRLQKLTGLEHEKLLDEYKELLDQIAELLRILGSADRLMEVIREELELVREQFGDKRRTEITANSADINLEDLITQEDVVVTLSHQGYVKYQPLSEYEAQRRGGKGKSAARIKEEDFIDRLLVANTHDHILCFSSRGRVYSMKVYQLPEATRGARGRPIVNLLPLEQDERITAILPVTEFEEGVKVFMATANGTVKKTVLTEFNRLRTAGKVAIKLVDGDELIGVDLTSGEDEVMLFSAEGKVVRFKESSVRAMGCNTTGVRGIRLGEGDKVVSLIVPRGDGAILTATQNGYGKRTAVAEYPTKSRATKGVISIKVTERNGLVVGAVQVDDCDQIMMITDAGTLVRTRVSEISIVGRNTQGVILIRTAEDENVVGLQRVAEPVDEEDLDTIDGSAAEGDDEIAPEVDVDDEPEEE

[4] = system: CFT073 + pSU18 + CTX-M-1; test: Whole-cell NMR β-lactamase hydrolysis assay, CFT073 + CTX-M-1; format: cell-based, E. coli; settings: 100 μM compound at 1 h by whole-cell NMR assay
[5] = system: E. coli strain DH5α; test: MIC, broth microdilution, E. coli DH5α; format: cell-based; settings: for MIC value DH5α: E. coli DH5α without β-lactamase
Experimental: Analysis of the literature identified the amide functionality at C-7 of the cephem ring as central to PBP and β-lactamase activity,[44]−[51] and therefore structural changes at this position provided the initial focus of investigation. By use of cephalothin 7 (Table 1) as the starting point, analogues were prepared to explore bioisosteric replacement,[52],[53] functionalities present in early generation β-lactam antibiotics, and to probe steric and electronic tolerance.[54],[55] All compounds were synthesized according to the previously reported methods (Figure S1 in Supporting Information).[55],[56] Antibacterial activity was assessed by determining the minimal concentration required to inhibit bacterial growth, known as the minimal inhibitory concentration (MIC), against the E. coli strain DH5α ± expression of the ESBL TEM-116.[57] The susceptibility to β-lactamase mediated hydrolysis was assessed by determining the physiological efficiency (kcat/Km) of hydrolysis by recombinant AmpC protein.[3],[58],[59] […]
pNDM pSU18 containing the native coding sequence for NDM-1 under the Jiménez-control of the native promoter Castellanos et […]
pKPC pSU18 containing the native coding sequence for KPC-3 under the Brem et al., control of the native promoter 20166
Transformation of E. coli with plasmids
Plasmids were introduced via heat shock into chemically competent DH5a and via electroporation into E. coli CFT073 following published protocols.8 […]
The bacterial strains and plasmids used in this study are detailed in Supplementary Table 1.
E. coli was grown in Mueller-Hinton Broth (MHB) or Lennox Broth (LB) at 37 °C, with shaking (180 r.p.m.) overnight (16-18 h). […]
MIC assays were performed in 96-well thermo scientific Nuclon Delta Surface plates and MICs were determined in accordance with the broth microdilution protocol.7 E. coli grown to stationary-phase in MHB or LB were adjusted to OD600 nm of 0.05 in MHB and […]
determined as the lowest concentration of antibiotic that inhibited visible bacterial growth.
OD595 measurements were recorded on a BioRad 1Mark Microplate Reader. […]
subsequently incubated at 37 °C with shaking (180 r.p.m.) and bacterial viability determined […]
Each compound was incubated for 1 hour at room temperature in 100 mM NaPO4 (pH 7) ± 0.5 M NaOH. The wavelength at which the difference between un-hydrolysed and hydrolysed compound was the greatest was selected (typically 263 nm) and a compound concentration vs. absorbance standard curve was generated. […] Recombinant Amp-C in assay buffer was added immediately before incubatio n in the microplate reader at 37 °C. UV absorbance was measured every 20 s for 1 h on a BMG LABTECH SPECTROstarNano. Kinetic parameters were determined by half -life analysis. […]

[6] = system: CFT073 + pSU18 (pEMP); test: microbe, parasite or virus in culture; format: cell-based, E. coli; settings: Escherichia coli, read-out: MIC value CFT073 + pSU18, empty plasmid, no β-lactamase
[7] = system: DH5α + TEM-116; test: Whole-cell NMR β-lactamase hydrolysis assay, DH5α + TEM-116; format: cell-based, E. coli; settings: DH5α + TEM-116, 100 μM, 90 min
[8] = target: T2, recombinant AmpC protein (Escherichia coli, UniProt P00811); format: biochemical
T2 construct: purchased Abcam ab104926
T2 sequence (P00811 20-377): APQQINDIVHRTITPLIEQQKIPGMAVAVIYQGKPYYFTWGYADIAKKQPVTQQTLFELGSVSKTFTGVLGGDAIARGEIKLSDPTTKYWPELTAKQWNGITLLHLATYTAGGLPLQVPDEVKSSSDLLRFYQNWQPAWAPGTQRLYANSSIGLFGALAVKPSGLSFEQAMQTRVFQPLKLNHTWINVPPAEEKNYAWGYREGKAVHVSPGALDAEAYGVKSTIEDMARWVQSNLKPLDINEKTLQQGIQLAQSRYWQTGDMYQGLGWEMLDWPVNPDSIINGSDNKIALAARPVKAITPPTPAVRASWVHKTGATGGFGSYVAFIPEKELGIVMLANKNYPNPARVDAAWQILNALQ

SMILES: CC(=O)OCC1=C(C(=O)O)N2C(=O)[C@@H](NC(=O)Cc3cccs3)[C@H]2SC1 [Ceph 7, cephalothin, reference compound]
- % hydrolysis by NMR –βla [1]: 0%
- % hydrolysis by NMR +βla ([2]; listed as cepaholothin 7): complete hydrolysis

SMILES: O=C(O)c1cn(C2CC2)c2cc(N3CCNCC3)c(F)cc2c1=O [Ciprofloxacin 31, ciprofloxacin, reference compound]
- effect of CTX-M-15 on DNA gyrase inhibitory activity [3]: not affected by CTX-M-15

SMILES: CC(=O)OCC1=C(C(=O)O)N2C(=O)[C@@H](NC(=O)[C@H](C)c3ccccc3)[C@H]2SC1 [compound 10, (6R,7R)-3-(Acetoxymethyl)-8-oxo-7-((R)-2-phenylpropanamido)-5-thia-1-azabicyclo[4.2.0]oct-2-ene-2-carboxylic Acid]
- % hydrolysis in CFT073 + pSU18 + CTX-M-1 [4]: 0%

SMILES: CC(=O)OCC1=C(C(=O)O)N2C(=O)[C@@H](NC(=O)Cc3ccccc3)[C@H]2SC1 [compound 11, (6R,7R)-3-(Acetoxymethyl)-8-oxo-7-(2-phenylacetamido)-5-thia-1-azabicyclo[4.2.0]oct-2-ene-2-carboxylic Acid]
- increase in MIC value against E. coli DH5α compared to cephalothin [5]: 4 fold

SMILES: CC(=O)OCC1=C(C(=O)O)N2C(=O)[C@@H](NC(=O)Cc3ccc(C)cc3)[C@H]2SC1 [compound 12, (6R,7R)-3-(Acetoxymethyl)-8-oxo-7-(2-(p-tolyl)acetamido)-5-thia-1-azabicyclo[4.2.0]oct-2-ene-2-carboxylic Acid]
- MIC [6]: 100 µM

SMILES: CC(=O)OCC1=C(C(=O)O)N2C(=O)[C@@H](NC(=O)Cc3ccc(F)cc3)[C@H]2SC1 [compound 13, (6R,7R)-3-(Acetoxymethyl)-7-(2-(4-fluorophenyl)acetamido)-8-oxo-5-thia-1-azabicyclo[4.2.0]oct-2-ene-2-carboxylic Acid]
- MIC [6]: 100 µM

SMILES: CC(=O)OCC1=C(C(=O)O)N2C(=O)[C@@H](NC(=O)Cc3ccc(Cl)cc3)[C@H]2SC1 [compound 14, (6R,7R)-3-(Acetoxymethyl)-7-(2-(4-chlorophenyl)acetamido)-8-oxo-5-thia-1-azabicyclo[4.2.0]oct-2-ene-2-carboxylic Acid]
- MIC [6]: 100 µM

SMILES: CC(=O)OCC1=C(C(=O)O)N2C(=O)[C@@H](NC(=O)Cc3ccc(Br)cc3)[C@H]2SC1 [compound 15, (6R,7R)-3-(Acetoxymethyl)-7-(2-(4-bromophenyl)acetamido)-8-oxo-5-thia-1-azabicyclo[4.2.0]oct-2-ene-2-carboxylic Acid]
- MIC [6]: 100 µM

SMILES: CC(=O)OCC1=C(C(=O)O)N2C(=O)[C@@H](NC(=O)Cc3ccc(-c4ccccc4)cc3)[C@H]2SC1 [compound 16, (6R,7R)-7-(2-([1,1′-Biphenyl]-4-yl)acetamido)-3-(acetoxymethyl)-8-oxo-5-thia-1-azabicyclo[4.2.0]oct-2-ene-2-carboxylic Acid]
- % hydrolysis by NMR –βla [1]: 0%
- % hydrolysis by NMR +βla [2]: 100%
- MIC value DH5α [5]: no measurable MIC values

SMILES: CC(=O)OCC1=C(C(=O)O)N2C(=O)[C@@H](NC(=O)Cc3ccc(Oc4ccccc4)cc3)[C@H]2SC1 [compound 17, (6R,7R)-3-(Acetoxymethyl)-8-oxo-7-(2-(4-phenoxyphenyl)acetamido)-5-thia-1-azabicyclo[4.2.0]oct-2-ene-2-carboxylic Acid]
- % hydrolysis by NMR –βla [1]: 0%
- MIC value DH5α [5]: no measurable MIC values
- % hydrolysis by NMR +βla [7]: 54%

SMILES: CC(=O)OCC1=C(C(=O)O)N2C(=O)[C@@H](NC(=O)Cc3cccc(C)c3)[C@H]2SC1 [compound 18, (6R,7R)-3-(acetoxymethyl)-8-oxo-7-(2-(m-tolyl)acetamido)-5-thia-1-azabicyclo[4.2.0]oct-2-ene-2-carboxylic Acid]
- increase in kcat/Km compared to cephalothin [8]: 3 fold
- increase in kcat/Km compared to para-methyl 12 [8]: 5 fold

SMILES: CC(=O)OCC1=C(C(=O)O)N2C(=O)[C@@H](NC(=O)Cc3cccc(Oc4ccccc4)c3)[C@H]2SC1 [compound 19, (6R,7R)-3-(Acetoxymethyl)-8-oxo-7-(2-(3-phenoxyphenyl)acetamido)-5-thia-1-azabicyclo[4.2.0]oct-2-ene-2-carboxylic Acid]
- % hydrolysis in CFT073 + pSU18 + CTX-M-1 [4]: 0%
- MIC value DH5α [5]: no measurable MIC values

SMILES: CC(=O)OCC1=C(C(=O)O)N2C(=O)[C@@H](NC(=O)C3CCCCC3)[C@H]2SC1 [compound 25, (6R,7R)-3-(Acetoxymethyl)-7-(cyclohexanecarboxamido)-8-oxo-5-thia-1-azabicyclo[4.2.0]oct-2-ene-2-carboxylic Acid]
- % hydrolysis in CFT073 + pSU18 + CTX-M-1 [4]: 0%

SMILES: CCCCCC(=O)N[C@@H]1C(=O)N2C(C(=O)O)=C(COC(C)=O)CS[C@H]12 [compound 28, (6R,7R)-3-(Acetoxymethyl)-7-hexanamido-8-oxo-5-thia-1-azabicyclo[4.2.0]oct-2-ene-2-carboxylic Acid]
- MIC [6]: 100 µM
